According to patent US20100286038A1, “FORMULATION CONTAINING CYCLIN-DEPENDENT KINASE INHIBITING COMPOUND AND METHOD OF TREATING TUMORS USING THE SAME” (priority 2007, published 2010):
Like-named read-outs stand apart in the source and are kept apart here.

Conditions: for AUC / CL / Cmax / t1/2: Table V; for AUC / CL / Cmax / t1/2 / AUC(tf) Mean / Cmax Mean / Tmax Median / tf Median / AUC(I) Mean / CL Mean / t½ Mean: 2 hour IV infusion; for AUC(tf) Mean / Cmax Mean / Tmax Median / tf Median: Table VI; for AUC(I) Mean / CL Mean / t½ Mean: Table VII
Protocol: The contents of the IV bag were infused over a two hour period. […] Each patient was dosed on a 28 day cycle, comprising an infusion once a week for the first three weeks of the cycle on days 1, 8, and 15 of each cycle, with no dose administered in the week following the third dose.

CCc1cnn2c(NCc3ccc[n+]([O-])c3)cc(N3CCCC[C@H]3CCO)nc12 [Formula II]
drug accumulation (1.85 mg/m^2 on days 1, 8, 15 of 28 day cycle): drug accumulation is not evident | dosage at which plasma levels of 25 nM (10 ng/mL) are available (2-hour infusions): greater than 1.32 mg/m^2 | AUC (0.66 mg/M^2): 32.1 ng·h/mL | CL (0.66 mg/M^2): 20.6 L/(hr m^2) | Cmax (0.66 mg/M^2): 18.6 ng/mL | t1/2 (0.66 mg/M^2): 1.48 h | Cmax (1.32 mg/M^2): 63.8 ng/mL | AUC (1.85 mg/M^2): 201.2 (38) ng hr/mL | CL (1.85 mg/M^2): 10.2 (36) L/(hr m^2) | Cmax (1.85 mg/M^2): 95.7 (26) ng/mL | t1/2 (1.85 mg/M^2): 2.29 (45) hours | AUC (2.59 mg/M^2): 213 (35) ng hr/mL | CL (2.59 mg/M^2): 12.9 (35) L/(hr m^2) | t1/2 (2.59 mg/M^2): 3.0 (1) hours | AUC (3.63 mg/M^2): 423 (91) ng hr/mL | CL (3.63 mg/M^2): 14.7 (91) L/(hr m^2) | Cmax (3.63 mg/M^2): 163 (63) ng/mL | t1/2 (3.63 mg/M^2): 2.56 (38) hours | AUC (3.7 mg/M^2): 336 ng·h/mL | CL (3.7 mg/M^2): 11.0 L/(hr m^2) | Cmax (3.7 mg/M^2): 136 ng/mL | t1/2 (3.7 mg/M^2): 2.75 h | AUC (7.4 mg/M^2): 972 ng·h/mL | CL (7.4 mg/M^2): 7.62 L/(hr m^2) | Cmax (7.4 mg/M^2): 353 ng/mL | t1/2 (7.4 mg/M^2): 2.86 h | AUC (14.8 mg/M^2): 1053 ng·h/mL | CL (14.8 mg/M^2): 14.1 L/(hr m^2) | Cmax (14.8 mg/M^2): 396 ng/mL | t1/2 (14.8 mg/M^2): 2.78 h | AUC (29.6 mg/M^2): 2434 (45) ng hr/mL | CL (29.6 mg/M^2): 14.0 (40) L/(hr m^2) | Cmax (29.6 mg/M^2): 890 (44) ng/mL | t1/2 (29.6 mg/M^2): 2.98 (11) hours | AUC (41.4 mg/M^2): 3041 (51) ng hr/mL | Cmax (41.4 mg/M^2): 1343 (48) ng/mL | t1/2 (41.4 mg/M^2): 2.80 (29) hours | CL ([…]^2): 13.1 L/(hr m^2) | t1/2 ([…]^2): 2.01 h | AUC(tf) Mean (1.85 mg/m^2, N 1): 134 ng·h/mL | Cmax Mean (1.85 mg/m^2, N 1): 62.5 ng/mL | Tmax Median (1.85 mg/m^2, N 1): 1 h | tf Median (1.85 mg/m^2, N 1): 8 h | AUC(tf) Mean (3.7 mg/m^2, N 1): 336 ng·h/mL | Cmax Mean (3.7 mg/m^2, N 1): 136 ng/mL | Tmax Median (3.7 mg/m^2, N 1): 2 h | tf Median (3.7 mg/m^2, N 1): 24 h | AUC(tf) Mean (7.4 mg/m^2, N 1): 970 ng·h/mL | Cmax Mean (7.4 mg/m^2, N 1): 353 ng/mL | Tmax Median (7.4 mg/m^2, N 1): 2 h | tf Median (7.4 mg/m^2, N 1): 24 h | AUC(tf) Mean (14.8 mg/m^2, N 1): 1050 ng·h/mL | Cmax Mean (14.8 mg/m^2, N 1): 396 ng/mL | Tmax Median (14.8 mg/m^2, N 1): 2 h | tf Median (14.8 mg/m^2, N 1): 24 h | AUC(tf) Mean (29.6 mg/m^2, N 6): 2040 ng·h/mL | Cmax Mean (29.6 mg/m^2, N 6): 890 ng/mL | Tmax Median (29.6 mg/m^2, N 6): 1 h | tf Median (29.6 mg/m^2, N 6): 24 h | AUC(tf) Mean (41.4 mg/m^2, N 6): 2870 ng·h/mL | Cmax Mean (41.4 mg/m^2, N 6): 1300 ng/mL | Tmax Median (41.4 mg/m^2, N 6): 2 h | tf Median (41.4 mg/m^2, N 6): 24 h | AUC(tf) Mean (50 mg/m^2, N 10): 4050 ng·h/mL | Cmax Mean (50 mg/m^2, N 10): 1820 ng/mL | Tmax Median (50 mg/m^2, N 10): 1.5 h | tf Median (50 mg/m^2, N 10): 24 h | AUC(tf) Mean (58 mg/m^2, N 3): 3290 ng·h/mL | Cmax Mean (58 mg/m^2, N 3): 1460 ng/mL | Tmax Median (58 mg/m^2, N 3): 1 h | tf Median (58 mg/m^2, N 3): 24 h | AUC(I) Mean (1.85 mg/m^2, N 1): 136 ng·h/mL | CL Mean (1.85 mg/m^2, N 1): 13.6 L/hr/m^2 | t½ Mean (1.85 mg/m^2, N 1): 1.42 h | AUC(I) Mean (3.7 mg/m^2, N 1): 336 ng·h/mL | CL Mean (3.7 mg/m^2, N 1): 11.0 L/hr/m^2 | t½ Mean (3.7 mg/m^2, N 1): 2.75 h | AUC(I) Mean (7.4 mg/m^2, N 1): 972 ng·h/mL | CL Mean (7.4 mg/m^2, N 1): 7.62 L/hr/m^2 | t½ Mean (7.4 mg/m^2, N 1): 2.86 h | AUC(I) Mean (14.8 mg/m^2, N 1): 1050 ng·h/mL | CL Mean (14.8 mg/m^2, N 1): 14.1 L/hr/m^2 | t½ Mean (14.8 mg/m^2, N 1): 2.78 h | AUC(I) Mean (29.6 mg/m^2, N 5): 2430 ng·h/mL | CL Mean (29.6 mg/m^2, N 5): 14.0 L/hr/m^2 | t½ Mean (29.6 mg/m^2, n = 4): 2.98 h | AUC(I) Mean (41.4 mg/m^2, N 6): 2890 ng·h/mL | CL Mean (41.4 mg/m^2, N 6): 26.8 L/hr/m^2 | t½ Mean (41.4 mg/m^2, N 6): 2.84 h
